Measured values taken from US4808703A, “Novel 3-(4'-aminobutylamino) propylaminobleomycin derivatives” (Zaidan Hojin Biseibutsu Kagaku Kenku Kai, priority 1983, dated 1989).
Read-outs that look alike come from different tables or passages of the source.

Key:
[1] = system: Mycobacterium smegmatis ATCC 607; assay: Antibacterial activity by the agar cylinder plate method, Mycobacterium smegmatis ATCC607; type: cell-based; settings: copper-containing compound, standard bleomycin A2 = 1,000 mcg potency/mg
Description: (§1) (1) Antibacterial activity against Mycobacterium smegmatis ATCC607 and Bacillus subtilis
(§2) The above activity ws determined by the agar cylinder plate method using the above microorganisms.

[2] = system: ICR mice; settings: mouse, in vivo
Description: (§3) ICR mice (male, 15-week-old) were used in groups of 10 each. The dose of each test compound was 5 mg/kg injected intraperitoneally once daily for 10 consecutive days. After the administration of the compound was completed, the animals were reared for 5 weeks for observation. Then, the animals were killed and autopsied so that the incidence and grade of pulmonary fibrosis were examined.
(§4) The incidence of pulmonary fibrosis was expressed as the number of mice developing pulmonary fibrosis in the group of mice administered the test compound. The grade of pulmonary fibrosis was expressed as the total score for pulmonary fibrosis divided by the total number of specimens.
(§5) 1 point: Accumulation of exudate in the alveoli, and fibrosis-like changes seen in the alveolar septum.
(§6) 2 points: Fibrosis seen at several sites.
4 points: Sporadic fibrosis.
(§7) 6 points: Extensive fibrosis (fibrosis seen in more than 170 of the total region).
(§8) The ratio in the table represents the ratio of the incidence of the test compound to that of bleomycin complex, or the ratio of the grade of the test compound to that of bleomycin complex.

[3] = system: HeLa S3 cells; assay: Growth-inhibiting effect on HeLa S3 cell cultured; type: cell-based; settings: 3 days of incubation after addition
Description: (2) Growth-inhibiting effect on HeLa S3 cell cultured
A culture medium (10% calf serum-containing MEM) in a plastic dish was inoculated with HeLa S3 cells, and a bleomycin compound was added 2 days later. Incubation was continued for a further 3 days, and then the number of viable cells was counted. Growth inhibitory rate was calculated from the following equation:
Growth inhibitory rate (%)=100×(B-A)/(B-C)
where A is the final bacterial cell count 3 days after addition of the test sample, B is the final bacterial cell count in the control involving no addition of the test sample, and C is the bacterial cell count at the time of addition of the test sample.
ID50, the concentration producing a growth inhibitory rate of 50%, was estimated from the curve of the concentration of the test sample Vs. the growth inhibitory rate.

[4] = system: Bacillus subtilis; assay: Antibacterial activity by the agar cylinder plate method, Bacillus subtilis; type: cell-based; settings: copper-containing compound, standard bleomycin A2 = 1,000 mcg potency/mg
Description: as §1, §2

[5] = system: ICR mice; assay: Pulmonary toxicity (fibrosis of the lung) in mice; settings: for Incidence: Number of mice with pulmonary fibrosis/Number of mice in the treatment group / Incidence (%) of pulmonary fibrosis / Grade: Total score for pulmonary fibrosis/Total specimens / Grade of pulmonary fibrosis (total score divided by total number of specimens): 5 mg/kg i.p. once daily for 10 days; for Incidence: Number of mice with pulmonary fibrosis/Number of mice in the treatment group / Incidence (%) of pulmonary fibrosis: autopsy after 5 weeks of observation; for Incidence: Number of mice with pulmonary fibrosis/Number of mice in the treatment group: count; for Incidence (%) of pulmonary fibrosis: percentage in parentheses; for Grade: Total score for pulmonary fibrosis/Total specimens / Grade of pulmonary fibrosis (total score divided by total number of specimens): autopsy after 5 weeks, scores 0, 1, 2, 4, 6 points; for Grade: Total score for pulmonary fibrosis/Total specimens: fraction; for Grade of pulmonary fibrosis (total score divided by total number of specimens): value in parentheses; for Grade ratio: grade of the test compound to that of bleomycin complex; for Incidence ratio: incidence of the test compound to that of bleomycin complex
Description: as §3, §4, §5, §6
4 points: Sporadic fibrosis.
as §7, §8

[6] = system: Mycobacterium smegmatis ATCC 607; settings: copper-free bleomycin A2; standard for both Mycobacterium smegmatis ATCC607 and Bacillus subtilis; cited from earlier work

Row | Compound | Antibacterial titer of copper-compound [1] | Grade ratio [2] | Incidence ratio [2] | Incidence: Number of mice with pulmonary fibrosis/Number of mice in the treatment group [2] | ID50 of copper-free compound (concentration producing a growth inhibitory rate of 50%) [3] | Antibacterial titer of copper-compound [4] | Incidence: Number of mice with pulmonary fibrosis/Number of mice in the treatment group [5] | Incidence (%) of pulmonary fibrosis [5] | Grade: Total score for pulmonary fibrosis/Total specimens [5] | Grade of pulmonary fibrosis (total score divided by total number of specimens) [5] | Grade ratio [5] | Incidence ratio [5] | Titer of the standard substance bleomycin A2 [6]
1 | 3-(4'-cycloundecanylmethylaminobutylamino)propylaminobleomycin [Compound 7] | 24240 mcg potency/mg | 0.00 | 0.00 | 0/10 | 0.16 µg/mL | 7330 mcg potency/mg | – | – | – | – | – | – | –
2 | COc1ccc(CN(CCCCN(Cc2ccc(OC)cc2)Cc2ccc(OC)cc2)CCCNC(=O)c2csc(-c3csc(CCNC(=O)C(NC(=O)C(C)C(O)C(C)NC(=O)C(NC(=O)c4nc(C(CC(N)=O)NCC(N)C(N)=O)nc(N)c4C)C(OC4OC(CO)C(O)C(O)C4OC4OC(CO)C(O)C(OC(N)=O)C4O)c4cnc[nH]4)C(C)O)n3)n2)cc1 (stereo not drawn) [Compound 4, 3-{N--p-methoxybenzyl-N--[4'-bis(p-methoxybenzyl)aminobutyl]amino}propylaminobleomycin] | 11109 mcg potency/mg | – | – | – | – | 197 mcg potency/mg | 0/10 | 0% | 0/30 | 0 | 0.00 | 0.00 | –
3 | Cc1ccc(CN(CCCCN(Cc2ccc(C)cc2)Cc2ccc(C)cc2)CCCNC(=O)c2csc(-c3csc(CCNC(=O)C(NC(=O)C(C)C(O)C(C)NC(=O)C(NC(=O)c4nc(C(CC(N)=O)NCC(N)C(N)=O)nc(N)c4C)C(OC4OC(CO)C(O)C(O)C4OC4OC(CO)C(O)C(OC(N)=O)C4O)c4cnc[nH]4)C(C)O)n3)n2)cc1 (stereo not drawn) [Compound 5, 3-{N--p-methylbenzyl-N--[4'-bis(p-methylbenzyl)aminobutyl]amino}propylaminobleomycin] | 4560 mcg potency/mg | – | – | – | – | 203 mcg potency/mg | 0/10 | 0% | 0/30 | 0 | 0.00 | 0.00 | –
4 | Cc1c(N)nc(C(CC(N)=O)NCC(N)C(N)=O)nc1C(=O)NC(C(=O)NC(C)C(O)C(C)C(=O)NC(C(=O)NCCc1nc(-c2nc(C(=O)NCCCN(CCCCN(CC3CCCCCCC3)CC3CCCCCCC3)CC3CCCCCCC3)cs2)cs1)C(C)O)C(OC1OC(CO)C(O)C(O)C1OC1OC(CO)C(O)C(OC(N)=O)C1O)c1cnc[nH]1 (stereo not drawn) [Compound 6, 3-{N--cyclooctylmethyl-N--[4'-bis(cyclooctylmethyl)aminobutyl]amino}propylaminobleomycin] | 530 mcg potency/mg | – | – | – | – | 61 mcg potency/mg | 0/10 | 0% | 0/30 | 0 | 0.00 | 0.00 | –
5 | CCCCCCCCCCN(CCCCCCCCCC)CCCCN(CCCCCCCCCC)CCCNC(=O)c1csc(-c2csc(CCNC(=O)C(NC(=O)C(C)C(O)C(C)NC(=O)C(NC(=O)c3nc(C(CC(N)=O)NCC(N)C(N)=O)nc(N)c3C)C(OC3OC(CO)C(O)C(O)C3OC3OC(CO)C(O)C(OC(N)=O)C3O)c3cnc[nH]3)C(C)O)n2)n1 (stereo not drawn) [Compound 8, 3-{N--n-decyl-N--[4'-bis(n-decyl)-aminobutyl]amino}propylaminobleomycin] | 295 mcg potency/mg | – | – | – | – | 75 mcg potency/mg | 0/10 | 0% | 0/30 | 0 | 0.00 | 0.00 | –
6 | CCCCCN(CCCCC)CCCCN(CCCCC)CCCNC(=O)c1csc(-c2csc(CCNC(=O)C(NC(=O)C(C)C(O)C(C)NC(=O)C(NC(=O)c3nc(C(CC(N)=O)NCC(N)C(N)=O)nc(N)c3C)C(OC3OC(CO)C(O)C(O)C3OC3OC(CO)C(O)C(OC(N)=O)C3O)c3cnc[nH]3)C(C)O)n2)n1 (stereo not drawn) [Compound 9, 3-{N--n-pentyl-N--[4'-bis(n-pentyl)aminobutyl]amino}propylaminobleomycin] | 57408 mcg potency/mg | – | – | – | – | 3520 mcg potency/mg | 0/10 | 0% | 0/30 | 0 | 0.00 | 0.00 | –
7 | Cc1c(N)nc(C(CC(N)=O)NCC(N)C(N)=O)nc1C(=O)NC(C(=O)NC(C)C(O)C(C)C(=O)NC(C(=O)NCCc1nc(-c2nc(C(=O)NCCCN(CCCCN(Cc3ccc(OCc4ccccc4)c(OCc4ccccc4)c3)Cc3ccc(OCc4ccccc4)c(OCc4ccccc4)c3)Cc3ccc(OCc4ccccc4)c(OCc4ccccc4)c3)cs2)cs1)C(C)O)C(OC1OC(CO)C(O)C(O)C1OC1OC(CO)C(O)C(OC(N)=O)C1O)c1cnc[nH]1 (stereo not drawn) [Compound 10, 3-{N-m,p-dibenzyloxybenzyl-N-[4'bis(m,p-dibenzyloxybenzyl)aminobutyl]amino}propylaminobleomycin] | 136 mcg potency/mg | – | – | – | – | 6 mcg potency/mg | 0/10 | 0% | 0/30 | 0 | 0.00 | 0.00 | –
8 | Cc1c(N)nc(C(CC(N)=O)NCC(N)C(N)=O)nc1C(=O)NC(C(=O)NC(C)C(O)C(C)C(=O)NC(C(=O)NCCc1nc(-c2nc(C(=O)NCCC[N+](C)(CCCCN(Cc3ccccc3)Cc3ccccc3)Cc3ccccc3)cs2)cs1)C(C)O)C(OC1OC(CO)C(O)C(O)C1OC1OC(CO)C(O)C(OC(N)=O)C1O)c1cnc[nH]1 (stereo not drawn) [Compound 12, 3-[N--methyl-N--benzyl-N--(4'-dibenzyl-aminobutyl)amino]propylaminobleomycin] | 13733 mcg potency/mg | – | – | – | – | 832 mcg potency/mg | 0/10 | 0% | 0/30 | 0 | 0.00 | 0.00 | –
9 | Cc1c(N)nc(C(CC(N)=O)NCC(N)C(N)=O)nc1C(=O)NC(C(=O)NC(C)C(O)C(C)C(=O)NC(C(=O)NCCc1nc(-c2nc(C(=O)NCCC[S+](C)C)cs2)cs1)C(C)O)C(OC1OC(CO)C(O)C(O)C1OC1OC(CO)C(O)C(OC(N)=O)C1O)c1cnc[nH]1 (stereo not drawn) [bleomycin A2] | – | – | – | – | – | – | – | – | – | – | – | – | 1,000 mcg potency/mg
